The values that follow come from patent US11306081B2, “Phenylacetamides as inhibitors of rock” (BRISTOL-MYERS SQUIBB COMPANY, priority 2017, dated 2022).

For one assay, the target named is ROCK2 (Homo sapiens (Human), UniProt O75116). Description: ROCK assay (LABCHIP 3000 peptide phosphorylation assay). It counts as biochemical. To be noted: 5 μM ATP, 1.5 μM peptide substrate, dose-response. The essentials: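 Rho kinase variants in 20 mM HEPES pH 7.5, 20 mM MgCl2, 0.015% Brij-35, 4 mM DTT, 5 μM ATP, 1.5 μM FITC-AHA-AKRRRLSSLRA-OH peptide; DMSO <2%. EDTA-stopped; phosphorylated/non-phosphorylated peptide separated by microfluidic LabChip readout. Dose-response inhibition curve-fitted to give IC50.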
Chain of ROCK2 (O75116 whole entry, species assumed): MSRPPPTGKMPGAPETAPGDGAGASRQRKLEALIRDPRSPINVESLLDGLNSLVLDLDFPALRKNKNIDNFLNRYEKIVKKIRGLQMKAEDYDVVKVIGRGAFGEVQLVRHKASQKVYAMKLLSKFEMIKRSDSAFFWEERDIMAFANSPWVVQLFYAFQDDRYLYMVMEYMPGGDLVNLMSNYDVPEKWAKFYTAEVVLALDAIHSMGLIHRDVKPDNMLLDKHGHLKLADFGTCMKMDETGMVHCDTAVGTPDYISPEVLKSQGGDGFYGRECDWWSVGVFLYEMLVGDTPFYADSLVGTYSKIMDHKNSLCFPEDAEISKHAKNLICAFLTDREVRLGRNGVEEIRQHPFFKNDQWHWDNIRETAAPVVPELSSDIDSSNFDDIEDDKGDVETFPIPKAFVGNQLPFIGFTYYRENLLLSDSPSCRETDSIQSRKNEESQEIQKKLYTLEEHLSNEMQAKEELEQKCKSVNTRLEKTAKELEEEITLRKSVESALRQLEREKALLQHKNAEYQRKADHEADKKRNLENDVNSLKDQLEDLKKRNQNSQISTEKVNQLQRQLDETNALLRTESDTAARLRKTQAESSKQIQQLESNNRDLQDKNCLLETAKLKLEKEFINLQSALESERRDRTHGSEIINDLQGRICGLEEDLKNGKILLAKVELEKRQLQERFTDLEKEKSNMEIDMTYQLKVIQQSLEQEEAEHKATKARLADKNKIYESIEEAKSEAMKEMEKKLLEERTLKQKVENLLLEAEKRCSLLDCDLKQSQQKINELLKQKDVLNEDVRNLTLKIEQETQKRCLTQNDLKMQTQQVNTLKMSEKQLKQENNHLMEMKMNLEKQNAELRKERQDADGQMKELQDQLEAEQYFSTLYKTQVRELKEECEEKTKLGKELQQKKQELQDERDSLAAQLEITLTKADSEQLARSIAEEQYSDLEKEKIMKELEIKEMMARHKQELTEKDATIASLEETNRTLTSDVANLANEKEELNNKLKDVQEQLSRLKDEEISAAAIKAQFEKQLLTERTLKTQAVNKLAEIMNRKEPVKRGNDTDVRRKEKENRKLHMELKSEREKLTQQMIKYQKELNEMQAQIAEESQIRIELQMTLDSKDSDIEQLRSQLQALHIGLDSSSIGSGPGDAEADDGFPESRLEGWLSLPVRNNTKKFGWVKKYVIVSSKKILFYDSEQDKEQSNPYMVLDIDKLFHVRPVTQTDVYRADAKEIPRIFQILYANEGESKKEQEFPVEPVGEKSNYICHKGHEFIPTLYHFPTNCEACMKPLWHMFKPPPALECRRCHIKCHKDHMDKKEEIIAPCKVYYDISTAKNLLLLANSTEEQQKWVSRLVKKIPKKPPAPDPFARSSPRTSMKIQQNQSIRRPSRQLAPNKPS

The subject of assay [1] is spontaneously hypertensive rat, renal hypertensive rat and deoxycortisone acetate salt hypertensive rat models. To be noted: cited from earlier work.
The next assay deals with Dahl salt-sensitive rats. The following applies: rat, in vivo; cited from earlier work.
For assay [2], the system named is neointimal formation in rats. The following applies: cited from earlier work.
The test system of another assay is rat stroke model. The following applies: in vivo; cited from earlier work.
In assay [3] the test system is porcine model of IL-1 beta-induced coronary stenosis. The following applies: long term treatment; cited from earlier work.

pIC50: −log10 of the molar value. Read-outs that look alike come from different tables or passages of the source.

As to `NC(=O)c1cccnc1Oc1ccc(CC(=O)Nc2nc3ccccc3n2CC2CC2)cc1F` [Example 167, 2-(4-(2-((1-(cyclo-propylmethyl)-1H-benzo[d]-imidazol-2-yl)-amino)-2-oxo-ethyl)-2-fluoro-phenoxy)nicotin-amide], at ROCK2, the pIC50 – broadly, the IC50 on a negative log10 scale, so that one unit is a factor of ten – is 7.60. In the case of `NC(=O)c1cccnc1Oc1ccc(CC(=O)Nc2nnc(-c3cccnc3)s2)cc1F` [Example 090, 2-(2-fluoro-4-(2-oxo-2-((5-(pyridin-3-yl)-1,3,4-thiadiazol-2-yl)amino)ethyl)phe-noxy)nicotinamide], the pIC50 against ROCK2 was 6.38. Consider `NC(=O)c1cccnc1Oc1ccc(CC(=O)Nc2nc3cccc(F)c3n2CC2CC2)cc1F` [Example 164, 2-(4-(2-((1-(cyclopropyl-methyl)-7-fluoro-1H-benzo[d]-imidazol-2-yl)-amino)-2-oxo-ethyl)-2-fluoro-phenoxy)nicotin-amide], for which the pIC50 at ROCK2 is 7.92.

At ROCK2, `CN1CCC(Oc2ccc(NC(=O)Cc3ccc(Oc4ncccc4C(N)=O)c(Cl)c3)cc2)CC1` [Example 095, 2-(2-chloro-4-(2-((4-((1-methylpiperidin-4-yl)oxy)phenyl)ami-no)-2-oxoethyl)phenoxy) nicotinamide] gave a pIC50 of 6.95.

On to `C[C@@H](N)[C@H]1CC[C@H](C(=O)Nc2ccncc2)CC1` [Example Y-27632, Y-27632], for which the figures for the blood pressure result in assay [1] (control rats) and in assay [1] (three rat models of hypertension) were “only a minor effect on blood pressure” and “significantly decrease blood pressure”, respectively. In the assay with Dahl salt-sensitive rats, the “ventricular hypertrophy, fibrosis and function” value was “improve ventricular hypertrophy, fibrosis and function”. For the same molecule, the neointimal formation result in assay [2] is on record as “inhibited neointimal formation”. In turn, `CP(C)(=O)c1ccc2nc(NC(=O)Cc3ccc(Oc4ncccc4C(N)=O)c(F)c3)cn2c1` [Example 149, 2-(4-(2-((6-(dimethyl-phosphoryl)imidazo-[1,2-a]pyridin-2-yl)-amino)-2-oxoethyl)-2-fluorophenoxy)-nicotinamide] gave a pIC50 on ROCK2 of 5.91. Take `NC(=O)c1cccnc1Oc1ccc(CC(=O)Nc2nc3ccc(C(F)(F)F)cn3n2)cc1F` [Example 129, 2-(2-fluoro-4-(2-oxo-2-((6-(trifluoromethyl)-[1,2,4]triazolo-[1,5-a]pyridin-2-yl)amino)ethyl)-phenoxy)nicotin-amide]: at ROCK2, the pIC50 was 7.16. With `COc1cc(C#N)c2c(c1)CCN2C(=O)Cc1ccc(Oc2ncccc2C(N)=O)cc1` [Example 056, 2-(4-(2-(7-cyano-5-methoxyindolin-1-yl)-2-oxoethyl)phenoxy) nicotinamide], on ROCK2, the pIC50 was 5.96. Turning to `Cc1cccc2nc(NC(=O)Cc3ccc(Oc4ncccc4C(N)=O)c(F)c3)nn12` [Example 096, 2-(2-fluoro-4-(2-((5-methyl-[1,2,4]triazolo[1,5-a]pyridin-2-yl)amino)-2-oxoethyl)phenoxy) nicotinamide], at ROCK2, the pIC50 is 6.96.

Turning to `COc1ccc2c(c1)CCc1sc(NC(=O)Cc3ccc(Oc4ncccc4C(N)=O)c(F)c3)nc1-2` [Example 001, 2-(2-fluoro-4-(2-((7-methoxy-4,5-dihydronaphtho[1,2-d]thiazol-2-yl)amino)-2-oxoethyl)phenoxy)nicotinamide], the pIC50 at ROCK2 is 8.00. At ROCK2, `NC(=O)c1cccnc1Oc1ccc(CC(=O)Nc2cn3cc(Br)ccc3n2)cc1Cl` [Example 009, 2-(4-(2-((6-bromoimidazo[1,2-a]pyridin-2-yl)amino)-2-oxoethyl)-2-chlorophenoxy)nicotinamide] had a negative-log IC50 (pIC50) of 7.46.

For `Cc1nn(C)cc1-c1ccn2nc(NC(=O)Cc3ccc(Oc4ncccc4C(N)=O)c(F)c3)nc2c1` [Example 136, 2-(4-(2-((7-(1,3-dimethyl-1H-pyrazol-4-yl)-[1,2,4]-triazolo[1,5-a]pyridin-2-yl)amino)-2-oxoethyl)-2-fluorophen-oxy)nicotin-amide], the pIC50 on ROCK2 was 7.96. Take `Cn1nccc1-c1ccc2nc(NC(=O)Cc3ccc(Oc4ncccc4C(N)=O)c(F)c3)nn2c1` [Example 138, 2-(2-fluoro-4-(2-((6-(1-methyl-1H-pyrazol-5-yl)-[1,2,4]triazolo[1,5-a]pyridin-2-yl)amino)-2-oxoethyl)phenoxy)nicotinamide]: the pIC50 against ROCK2 was 7.41. For `COc1ccn2nc(NC(=O)Cc3ccc(Oc4ncccc4C(N)=O)c(Br)c3)nc2c1` [Example 119, 2-(2-bromo-4-(2-((7-methoxy-[1,2,4]triazolo[1,5-a]pyridin-2-yl)amino)-2-oxoethyl)phenoxy)nicotinamide], the pIC50 against ROCK2 is 8.22. In the case of `O=S(=O)(c1cccc2cnccc12)N1CCCNCC1` [fasudil], the “infarct size and neurologic deficit” value with rat stroke model was “reduce both the infarct size and neurologic deficit”. In assay [3], the coronary constrictive remodeling entry is listed as “promote a regression of coronary constrictive remodeling” and the coronary stenosis result is listed as “progressively reduce coronary stenosis”. `NC(=O)c1cccnc1Oc1ccc(CC(=O)Nc2nc3c(F)cccc3n2CC(F)F)cc1Cl` [Example 173, 2-(2-chloro-4-(2-((1-(2,2-difluoro-ethyl)-4-fluoro-1H-benzo[d]-imidazol-2-yl)-amino)-2-oxo-ethyl)phenoxy)-nicotinamide] showed a negative logarithm of the IC50 (pIC50) on ROCK2 of 8.10. Turning to `NC(=O)c1cccnc1Oc1ccc(CC(=O)Nc2nc3cc(-c4cnn(C(F)F)c4)ccc3s2)cc1F` [Example 029, 2-(4-(2-((5-(1-(difluoromethyl)-1H-pyrazol-4-yl)benzo[d]thiazol-2-yl)amino)-2-oxoethyl)-2-fluorophenoxy)nicotin-amide], the pIC50 against ROCK2 was 8.05. The molecule `NC(=O)c1cccnc1Oc1ccc(CC(=O)Nc2cn3cc(C(F)(F)F)ccc3n2)cc1F` [Example 133, 2-(2-fluoro-4-(2-oxo-2-((6-(trifluoro-methyl)imidazo-[1,2-a]pyridin-2-yl)amino)ethyl)-phenoxy)nicotin-amide] had a pIC50 against ROCK2 of 6.70.
